The values that follow come from patent US9962420B2, “Compositions and methods for treating diabetes, fatty liver, cardiopathies, insulin resistance, carbohydrate and fat metabolism” (VALBIOTIS, priority 2014, dated 2018).

Data set [1] has as its system db/db mice. In words: Fasting glycemia (Tests A). As to conditions: Colby method. The data set is classed as in vivo.
Description: (§3) The experiments were performed on db/db mice. db/db mice have a mutation of the leptin receptors inducing a cell signaling dysfunction of the latter. […] These mice are insulin resistant, hypertriglyceridemic and glucose-intolerant.
(§4) The evaluations presented were performed just before the supplementation (t=0) and at the end of supplementation (t=8 weeks).
Data set [2] deals with db/db mice. The experiment in a line: Oral test of carbohydrate tolerance, starch force-feeding (Tests A). It counts as in vivo. As to conditions: Colby method. As to the method: The experiments were performed on db/db mice. db/db mice have a mutation of the leptin receptors inducing a cell signaling dysfunction of the latter. The leptin receptors are highly expressed in the hypothalamus. Mice having a mutation of these receptors cannot efficiently regulate their energy stores. […] These mice are insulin resistant, hypertriglyceridemic and glucose-intolerant. They constitute a pertinent and predictive model especially for studying insulin sensitivity, triglyceridemia, type 2 diabetes and one of its complications, non-alcoholic steatohepatitis (NASH) (Aileen J F King Br J Pharmacol 2012; 166(3):877-894; Sanches S C et al. Biomed Res Int 2015).
The experimental time was nine weeks with a “run-in” of one week followed by eight weeks of supplementation with the plant extracts and a composition X. The male mice were ten weeks old at the start of the treatment.
Nine compositions X were tested. […]
The experimental evaluations focused especially on: • Measurement of the body mass; • Measurement of the fasting glycemia; • The change in glycemia during an oral test of carbohydrate tolerance. After force-feeding with starch (3 g/kg) in the fasted state, the change in glycemia in response to starch was measured in the tail by biopsy just before the force-feeding (t0) and then after 30, 60, 90 and 120 minutes. The area under the curve (AUC) was calculated. […]

In data set [3] the test system is db/db mice. In words: Body mass (Tests A). Conditions: after eight weeks in feed. The data set is classed as in vivo.
Description: as §3, §4
Data set [4] relates to db/db mice. Conditions: highest dose, same model of db/db mice and similar experimental design; cited from earlier work.
The subject of data set [5] is db/db mice. The experiment in a line: Body mass, fat mass and lean mass by MRI (Tests B). The data set is classed as in vivo. As to conditions: six weeks in feed, mean ± SEM. The text has this: (§1) Using this predictive model of diabetic mice and incorporating composition C10 directly into the rodents' feed (1% Chrysanthellum indicum, 1% Cynara scolymus, 0.1% Vaccinium myrtillus, 0.001% Piper nigrum and 0.6% Olea europaea of the feed), this makes it possible to ensure its “multi-target” efficacy and its large-scale use, since intravenous or intraperitoneal injections are limited to a small number of people, given their mode of administration.
(§2) The experimental time was seven weeks with a “run-in” of one week followed by six weeks of supplementation with composition C10. The male mice were six weeks old at the start of the treatment. The evaluations were made just before the supplementation (t=0), weekly for certain parameters, and at the end of supplementation (t=6 weeks). […]

Data set [6] relates to db/db mice. In words: Fasting glycemia (Tests B). Conditions: six weeks in feed, mean ± SEM. The data set is classed as in vivo.
Description: as §1, §2

Data set [7] concerns db/db mice. In words: Glycated hemoglobin HbA1c (Tests B). The data set is classed as in vivo. Conditions: six weeks in feed, mean ± SEM.
Description: as §1, §2

The subject of data set [8] is db/db mice. In words: Insulin sensitivity test (Tests B). It counts as in vivo. Conditions: six weeks in feed, mean ± SEM. As to the method:
For compositions C7 to C9, an insulin sensitivity test was also performed. […] The change in glycemia in response to the insulin injection was measured in the tail by biopsy just before the injection (t0) and then after 30, 60, 90 and 120 minutes. The area under the curve (AUC) was calculated. A decrease in the AUC reflects a better response to the insulin injection and thus an improvement in the insulin sensitivity. Conversely, an increase in the AUC reflects poorer insulin sensitivity and thus insulin resistance.
as §1, §2

Data set [9] relates to db/db mice. The experiment in a line: Hepatic and serum triglycerides, serum HDL cholesterol (Tests B). As to conditions: six weeks in feed, mean ± SEM. It counts as in vivo. The text has this: The experimental time was seven weeks with a “run-in” of one week followed by six weeks of supplementation with composition C10. The male mice were six weeks old at the start of the treatment. The evaluations were made just before the supplementation (t=0), weekly for certain parameters, and at the end of supplementation (t=6 weeks).
The experimental evaluations related especially to: • Measurement of the feed intake (t1, t2, t3, t4 and t5 weeks); • Measurement of the body mass (t0, t1, t2, t3, t4, t5, t6 weeks); • Measurement of the fat mass and lean mass by MRI (magnetic resonance imaging; t0 and t6 weeks); • Measurement of the fasting glycemia (t0, t1, t2, t3, t4, t5, t6 weeks); • Measurement of the glycated hemoglobin (HbA1c; t6 weeks); • The insulin sensitivity (test identical to that performed in Tests A; t0 and t6 weeks); • The carbohydrate tolerance (test identical to that performed in Tests A; t0 and t6 weeks); • Measurement of the hepatic and serum triglycerides (t6 weeks); • Measurement of the serum HDL cholesterol (t6 weeks).

The conditions of data set [10]: p<0.01; cited from earlier work.
Data set [11] deals with T1, HMG-CoA reductase (Catalytic domain of the human enzyme, recombinant GST fusion protein expressed in E. Coli) (Homo sapiens, UniProt P04035).
T1 construct: (Catalytic domain of); GST; purchased Sigma
T1 sequence (P04035 340-888 limits assumed): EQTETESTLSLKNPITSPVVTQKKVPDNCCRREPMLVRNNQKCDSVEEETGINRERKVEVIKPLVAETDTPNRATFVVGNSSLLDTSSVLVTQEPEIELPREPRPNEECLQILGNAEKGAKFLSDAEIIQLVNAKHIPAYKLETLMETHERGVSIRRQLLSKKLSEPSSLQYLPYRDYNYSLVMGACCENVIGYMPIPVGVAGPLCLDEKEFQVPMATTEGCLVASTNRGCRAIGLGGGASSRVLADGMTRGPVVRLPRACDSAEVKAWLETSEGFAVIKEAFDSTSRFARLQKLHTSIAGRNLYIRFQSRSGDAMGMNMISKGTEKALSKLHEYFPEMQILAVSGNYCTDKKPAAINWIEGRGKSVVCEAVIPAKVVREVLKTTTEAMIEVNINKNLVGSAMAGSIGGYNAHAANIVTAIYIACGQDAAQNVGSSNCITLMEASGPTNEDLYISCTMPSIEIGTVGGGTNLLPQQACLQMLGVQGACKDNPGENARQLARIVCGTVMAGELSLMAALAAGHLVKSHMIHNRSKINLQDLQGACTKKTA
In words: Test of inhibition of HMG-CoA reductase. It counts as biochemical. As to conditions: concentration of sample set at 60 μg/mL.
Description: The molecules were diluted either in 90/10 (v/v) ultra-pure water/DMSO or in 50/50 (v/v) ultra-pure water/ethanol.
The reaction mechanism is as follows: HMG-CoA+2NADPH+2H^+ ? mevalonate+2NADP^++CoA-SH
Disappearance of the substrate NADPH (absorbing at 340 nm) is thus monitored over time.
In a first stage, the solutions need to be prepared from the Sigma® kit: • the 5× buffer supplied must be diluted to a concentration of 1× in ultra-pure water; • the NADPH is dissolved by adding 1× buffer, and then distributed in 100 μL tubes; • the starting enzyme solution is distributed in 25 μL aliquots.
The manipulations were performed directly in 96-well microplates (NUNC96 or [sequence]96). […]
After preparing the plate, the kinetic monitoring was performed in a microplate reader (BMG Labtech) over 16 minutes, 25 seconds, with values taken every 25 seconds at λ=340 nm, i.e. a total of 40 cycles. From this, the percentages of inhibition could be calculated.
In general, irrespective of the test, for a given concentration of an inhibitor, a curve of equation: absorbance=f(time) (in minutes) was prepared. […]
Depending on the types of tests, the percentages of inhibition of the various enzymes were calculated via various methods: • for the tests for inhibition of HMG-CoA reductase and of α-glucosidases, the calculation formula is identical: […]

Structures are written as SMILES. Read-outs that look alike come from different tables or passages of the source.

For the compound `O=C(/C=C/C=C/c1ccc2c(c1)OCO2)N1CCCCC1` [Composition C5, piperine], the “Observed degree of efficacy (in % of the control group), fasting glycemia after eight weeks of treatment” value in data set [1] is recorded as −13.3%. Also, the “Observed degree of efficacy (in % of the control group), oral test of carbohydrate tolerance, AUC (week 8 − week 0)” value in data set [2] was −82.3%. The “Body mass (mean ± SEM)” value in data set [3] was 32.7 ± 1.5 g.

Consider `CSc1ccc(C(=O)/C=C/c2cc(C)c(OC(C)(C)C(=O)O)c(C)c2)cc1` [GFT 505, Elafibranor], for which the HbA1c in [4] is 6%.

The compound `CN(C)C(=N)N=C(N)N` [Metformin, metformin] showed a Body mass in data set [5] of 40.8 ± 2.1 g. For the same compound, the Fasting glycemia in [6] was 474 ± 24 mg/dL. In addition, the HbA1c in data set [7] stood at 7.59 ± 0.24%. Further, in data set [8], the “Area under the curve measured during an test of insulin sensitivity (AUC)” value came out at 32778 ± 3166 mg·min/dL. The Serum triglycerides in data set [9] is on record as 256.23 ± 28.19 mg/dL. The compound further displayed an HDL cholesterol in data set [9] (serum) of 99.21 ± 6.03 mg/dL.

For `CC[C@H]1[C@@H](O)[C@@H]2[C@H](CC[C@]3(C)[C@@H]([C@H](C)CCC(=O)O)CC[C@@H]23)[C@@]2(C)CC[C@@H](O)C[C@@H]12` [OCA, obeticholic acid], the “Reduction of circulating HDL cholesterol” value in data set [10] was -0.2 g/L.

`CC[C@H](C)C(=O)O[C@H]1C[C@H](O)C=C2C=C[C@H](C)[C@H](CC[C@@H](O)C[C@@H](O)CC(=O)O)[C@H]21` [Pravastatin]: in data set [11], the “% of inhibition HMG-CoA reductase” value is reported as 100% and the inhibition – broadly, the percentage by which the read-out fell short of the control – at 60 µg/mL was determined as 100%.
